{"source": "patent US10194660B2", "about": "“Herbicidal compounds” (Syngenta Participations AG, priority 2015, dated 2019)", "format_in_all_cases": "in vivo", "key": {"[1]": {"tested_on": "Ipomoea hederacea (IPOHE)", "experiment": "Pre-emergence herbicidal glasshouse test", "conditions": "evaluated after 13 days, five point scale", "protocol": "(§1) Seeds of a variety of test species are sown in standard soil in pots (Lolium perenne (LOLPE), Solanum nigrum (SOLNI), Amaranthus retoflexus (AMARE), Setaria faberi (SETFA), Echinochloa crus-galli (ECHCG), Ipomoea hederacea (IPOHE)). After cultivation for one day (pre-emergence) or after 8 days cultivation (post-emergence) under controlled conditions in a glasshouse (at 24/16° C., day/night; 14 hours light; 65% humidity), the plants are sprayed with an aqueous spray solution derived from the formulation of the technical active ingredient in acetone/water (50:50) solution containing 0.5% Tween 20 (polyoxyethelyene sorbitan monolaurate, CAS RN 9005-64-5). Compounds are applied at 500 g/h unless otherwise stated. The test plants are then grown in a glasshouse under controlled conditions in a glasshouse (at 24/16° C., day/night; 14 hours light; 65% humidity) and watered twice daily. After 13 days for pre and post-emergence, the test is evaluated for the percentage damage caused to the plant. The biological activities are shown in the following table on a five point scale (5=80-100%; 4=60-79%; 3=40-59%; 2=20-39%; 1=0-19%)."}, "[2]": {"tested_on": "Amaranthus retoflexus (AMARE)", "experiment": "Pre-emergence herbicidal glasshouse test", "conditions": "evaluated after 13 days, five point scale", "protocol": "as §1"}, "Setaria faberi (SETFA) [3]": {"tested_on": "Setaria faberi (SETFA)", "experiment": "Pre-emergence herbicidal glasshouse test", "conditions": "evaluated after 13 days, five point scale", "protocol": "as §1"}, "[4]": {"tested_on": "Echinochloa crus-galli (ECHCG)", "experiment": "Pre-emergence herbicidal glasshouse test", "conditions": "evaluated after 13 days, five point scale", "protocol": "as §1"}, "[5]": {"tested_on": "Ipomoea hederacea (IPOHE)", "experiment": "Post-emergence herbicidal glasshouse test", "conditions": "evaluated after 13 days, five point scale", "protocol": "as §1"}, "[6]": {"tested_on": "Amaranthus retoflexus (AMARE)", "experiment": "Post-emergence herbicidal glasshouse test", "conditions": "evaluated after 13 days, five point scale", "protocol": "as §1"}, "Setaria faberi (SETFA) [7]": {"tested_on": "Setaria faberi (SETFA)", "experiment": "Post-emergence herbicidal glasshouse test", "conditions": "evaluated after 13 days, five point scale", "protocol": "as §1"}, "[8]": {"tested_on": "Echinochloa crus-galli (ECHCG)", "experiment": "Post-emergence herbicidal glasshouse test", "conditions": "evaluated after 13 days, five point scale", "protocol": "as §1"}, "Lolium perenne (LOLPE) [9]": {"tested_on": "Lolium perenne (LOLPE)", "experiment": "Pre-emergence herbicidal glasshouse test", "conditions": "applied at 250 g/ha, evaluated after 13 days, five point scale", "protocol": "as §1"}, "Solanum nigrum (SOLNI) [10]": {"tested_on": "Solanum nigrum (SOLNI)", "experiment": "Pre-emergence herbicidal glasshouse test", "conditions": "applied at 250 g/ha, evaluated after 13 days, five point scale", "protocol": "as §1"}, "Lolium perenne (LOLPE) [11]": {"tested_on": "Lolium perenne (LOLPE)", "experiment": "Post-emergence herbicidal glasshouse test", "conditions": "applied at 250 g/ha, evaluated after 13 days, five point scale", "protocol": "as §1"}, "Solanum nigrum (SOLNI) [12]": {"tested_on": "Solanum nigrum (SOLNI)", "experiment": "Post-emergence herbicidal glasshouse test", "conditions": "applied at 250 g/ha, evaluated after 13 days, five point scale", "protocol": "as §1"}}}
{"smiles": "Cc1c(C(=O)Nc2nnnn2C)cc2cnc(C(F)(F)F)nc2c1-c1ccccc1", "note": "[Compound 1.006]", "values": [{"measurement": "percentage damage caused to the plant, PRE Application IPOHE", "setting": "[1]; applied at 500 g/h", "result": "3 (3=40-59%)"}, {"measurement": "percentage damage caused to the plant, PRE Application AMARE", "setting": "[2]; applied", "result": "5 (5=80-100%)"}, {"measurement": "percentage damage caused to the plant, PRE Application SETFA", "setting": "Setaria faberi (SETFA) [3]; applied at 500 g/h", "result": "5 (5=80-100%)"}, {"measurement": "percentage damage caused to the plant, PRE Application ECHCG", "setting": "[4]; applied at 500 g/h", "result": "2 (2=20-39%)"}, {"measurement": "percentage damage caused to the plant, POST Application IPOHE", "setting": "[5]; applied at 500 g/h", "result": "5 (5=80-100%)"}, {"measurement": "percentage damage caused to the plant, POST Application AMARE", "setting": "[6]; applied at 500 g/h", "result": "5 (5=80-100%)"}, {"measurement": "percentage damage caused to the plant, POST Application SETFA", "setting": "Setaria faberi (SETFA) [7]; applied at 500 g/h", "result": "5 (5=80-100%)"}, {"measurement": "percentage damage caused to the plant, POST Application ECHCG", "setting": "[8]; applied at 500 g/h", "result": "5 (5=80-100%)"}]}
{"smiles": "CC(C)c1ncc2cc(C(=O)Nc3nnnn3C)c(Cl)c(-c3ccccc3)c2n1", "note": "[Compound 1.035]", "values": [{"measurement": "percentage damage caused to the plant, PRE Application IPOHE", "setting": "[1]; applied at 500 g/h", "result": "4 (4=60-79%)"}, {"measurement": "percentage damage caused to the plant, PRE Application AMARE", "setting": "[2]; applied", "result": "5 (5=80-100%)"}, {"measurement": "percentage damage caused to the plant, PRE Application SETFA", "setting": "Setaria faberi (SETFA) [3]; applied at 500 g/h", "result": "5 (5=80-100%)"}, {"measurement": "percentage damage caused to the plant, PRE Application ECHCG", "setting": "[4]; applied at 500 g/h", "result": "5 (5=80-100%)"}, {"measurement": "percentage damage caused to the plant, POST Application IPOHE", "setting": "[5]; applied at 500 g/h", "result": "5 (5=80-100%)"}, {"measurement": "percentage damage caused to the plant, POST Application AMARE", "setting": "[6]; applied at 500 g/h", "result": "5 (5=80-100%)"}, {"measurement": "percentage damage caused to the plant, POST Application SETFA", "setting": "Setaria faberi (SETFA) [7]; applied at 500 g/h", "result": "5 (5=80-100%)"}, {"measurement": "percentage damage caused to the plant, POST Application ECHCG", "setting": "[8]; applied at 500 g/h", "result": "5 (5=80-100%)"}]}
{"smiles": "Cn1nnnc1NC(=O)c1cc2cnc(C(F)(F)F)nc2c(-c2ccccc2)c1Cl", "note": "[Compound 1.021]", "values": [{"measurement": "percentage damage caused to the plant, PRE Application IPOHE", "setting": "[1]; applied at 500 g/h", "result": "5 (5=80-100%)"}, {"measurement": "percentage damage caused to the plant, PRE Application AMARE", "setting": "[2]; applied", "result": "5 (5=80-100%)"}, {"measurement": "percentage damage caused to the plant, PRE Application SETFA", "setting": "Setaria faberi (SETFA) [3]; applied at 500 g/h", "result": "5 (5=80-100%)"}, {"measurement": "percentage damage caused to the plant, PRE Application ECHCG", "setting": "[4]; applied at 500 g/h", "result": "5 (5=80-100%)"}, {"measurement": "percentage damage caused to the plant, POST Application IPOHE", "setting": "[5]; applied at 500 g/h", "result": "5 (5=80-100%)"}, {"measurement": "percentage damage caused to the plant, POST Application AMARE", "setting": "[6]; applied at 500 g/h", "result": "5 (5=80-100%)"}, {"measurement": "percentage damage caused to the plant, POST Application SETFA", "setting": "Setaria faberi (SETFA) [7]; applied at 500 g/h", "result": "5 (5=80-100%)"}, {"measurement": "percentage damage caused to the plant, POST Application ECHCG", "setting": "[8]; applied at 500 g/h", "result": "5 (5=80-100%)"}]}
{"smiles": "Cn1nnnc1NC(=O)c1cc2cnc(C(F)(F)F)nc2c(-c2ccccc2)c1C(F)(F)F", "note": "[Compound 1.001]", "values": [{"measurement": "percentage damage caused to the plant, PRE Application LOLPE", "setting": "Lolium perenne (LOLPE) [9]", "result": "1 (1=0-19%)"}, {"measurement": "percentage damage caused to the plant, PRE Application IPOHE", "setting": "[1]; applied at 250 g/ha", "result": "4 (4=60-79%)"}, {"measurement": "percentage damage caused to the plant, PRE Application AMARE", "setting": "[2]; applied at 250 g/ha", "result": "5 (5=80-100%)"}, {"measurement": "percentage damage caused to the plant, PRE Application SETFA", "setting": "Setaria faberi (SETFA) [3]; applied at 250 g/ha", "result": "3 (3=40-59%)"}, {"measurement": "percentage damage caused to the plant, PRE Application SOLNI", "setting": "Solanum nigrum (SOLNI) [10]", "result": "5 (5=80-100%)"}, {"measurement": "percentage damage caused to the plant, PRE Application ECHCG", "setting": "[4]; applied at 250 g/ha", "result": "5 (5=80-100%)"}, {"measurement": "percentage damage caused to the plant, POST Application LOLPE", "setting": "Lolium perenne (LOLPE) [11]", "result": "4 (4=60-79%)"}, {"measurement": "percentage damage caused to the plant, POST Application IPOHE", "setting": "[5]; applied at 250 g/ha", "result": "5 (5=80-100%)"}, {"measurement": "percentage damage caused to the plant, POST Application AMARE", "setting": "[6]; applied at 250 g/ha", "result": "5 (5=80-100%)"}, {"measurement": "percentage damage caused to the plant, POST Application SETFA", "setting": "Setaria faberi (SETFA) [7]; applied at 250 g/ha", "result": "5 (5=80-100%)"}, {"measurement": "percentage damage caused to the plant, POST Application SOLNI", "setting": "Solanum nigrum (SOLNI) [12]", "result": "5 (5=80-100%)"}, {"measurement": "percentage damage caused to the plant, POST Application ECHCG", "setting": "[8]; applied at 250 g/ha", "result": "5 (5=80-100%)"}]}
{"smiles": "Cn1nnnc1NC(=O)c1cc2cnc(C3CC3)nc2c(-c2ccccc2)c1Cl", "note": "[Compound 1.028]", "values": [{"measurement": "percentage damage caused to the plant, PRE Application IPOHE", "setting": "[1]; applied at 500 g/h", "result": "3 (3=40-59%)"}, {"measurement": "percentage damage caused to the plant, PRE Application AMARE", "setting": "[2]; applied", "result": "5 (5=80-100%)"}, {"measurement": "percentage damage caused to the plant, PRE Application SETFA", "setting": "Setaria faberi (SETFA) [3]; applied at 500 g/h", "result": "5 (5=80-100%)"}, {"measurement": "percentage damage caused to the plant, PRE Application ECHCG", "setting": "[4]; applied at 500 g/h", "result": "5 (5=80-100%)"}, {"measurement": "percentage damage caused to the plant, POST Application IPOHE", "setting": "[5]; applied at 500 g/h", "result": "5 (5=80-100%)"}, {"measurement": "percentage damage caused to the plant, POST Application AMARE", "setting": "[6]; applied at 500 g/h", "result": "5 (5=80-100%)"}, {"measurement": "percentage damage caused to the plant, POST Application SETFA", "setting": "Setaria faberi (SETFA) [7]; applied at 500 g/h", "result": "5 (5=80-100%)"}, {"measurement": "percentage damage caused to the plant, POST Application ECHCG", "setting": "[8]; applied at 500 g/h", "result": "5 (5=80-100%)"}]}
{"smiles": "Cn1nnnc1NC(=O)c1cc2cncnc2c(-c2ccccc2)c1Cl", "note": "[Compound 1.042]", "values": [{"measurement": "percentage damage caused to the plant, PRE Application IPOHE", "setting": "[1]; applied at 500 g/h", "result": "5 (5=80-100%)"}, {"measurement": "percentage damage caused to the plant, PRE Application AMARE", "setting": "[2]; applied", "result": "5 (5=80-100%)"}, {"measurement": "percentage damage caused to the plant, PRE Application SETFA", "setting": "Setaria faberi (SETFA) [3]; applied at 500 g/h", "result": "5 (5=80-100%)"}, {"measurement": "percentage damage caused to the plant, PRE Application ECHCG", "setting": "[4]; applied at 500 g/h", "result": "5 (5=80-100%)"}, {"measurement": "percentage damage caused to the plant, POST Application IPOHE", "setting": "[5]; applied at 500 g/h", "result": "5 (5=80-100%)"}, {"measurement": "percentage damage caused to the plant, POST Application AMARE", "setting": "[6]; applied at 500 g/h", "result": "5 (5=80-100%)"}, {"measurement": "percentage damage caused to the plant, POST Application SETFA", "setting": "Setaria faberi (SETFA) [7]; applied at 500 g/h", "result": "5 (5=80-100%)"}, {"measurement": "percentage damage caused to the plant, POST Application ECHCG", "setting": "[8]; applied at 500 g/h", "result": "5 (5=80-100%)"}]}
